Results from patent US11382328B2, “Rapid drug discovery methods for pathogen inactivation” (priority 2019, dated 2022).

System: E. coli strain W3110
Assay: Synergy assays: Biolog chemical sensitivity panels with Group IB metal, coefficient of drug interaction (CDI) from relative growth
Format: cell-based
Settings: for CDI (coefficient of drug interaction), copper mixed with biocide: Copper (mM) section
[1] = 1st of 3 copper concentrations (value not shown), 1st of four biocide concentrations
[2] = 1st of 3 copper concentrations (value not shown), 2nd of four biocide concentrations
[3] = 1st of 3 copper concentrations (value not shown), 3rd of four biocide concentrations
[4] = 2nd of 3 copper concentrations (value not shown), 1st of four biocide concentrations
[5] = 2nd of 3 copper concentrations (value not shown), 2nd of four biocide concentrations
[6] = 2nd of 3 copper concentrations (value not shown), 3rd of four biocide concentrations
[7] = 3rd of 3 copper concentrations (value not shown), 1st of four biocide concentrations
[8] = 3rd of 3 copper concentrations (value not shown), 2nd of four biocide concentrations
[9] = 3rd of 3 copper concentrations (value not shown), 3rd of four biocide concentrations
[10] = 3rd of 3 copper concentrations (value not shown), 4th of four biocide concentrations
[11] = Gold section of Table 5, first of three gold concentrations (μM, value not given), biocide concentration 4 of 4
[12] = Gold section of Table 5, second of three gold concentrations (μM, value not given), biocide concentration 1 of 4
[13] = Gold section of Table 5, second of three gold concentrations (μM, value not given), biocide concentration 3 of 4
[14] = Gold section of Table 5, second of three gold concentrations (μM, value not given), biocide concentration 4 of 4
[15] = Gold section of Table 5, third of three gold concentrations (μM, value not given), biocide concentration 1 of 4
[16] = Gold section of Table 5, third of three gold concentrations (μM, value not given), biocide concentration 2 of 4
[17] = Gold section of Table 5, third of three gold concentrations (μM, value not given), biocide concentration 4 of 4
[18] = Silver 0.5 μM, 1st of four biocide concentrations, E. coli
[19] = Silver 0.5 μM, 2nd of four biocide concentrations, E. coli
[20] = Silver 0.5 μM, 4th of four biocide concentrations, E. coli
[21] = Silver 1.0 μM, 2nd of four biocide concentrations, E. coli
[22] = Silver 1.0 μM, 3rd of four biocide concentrations, E. coli
[23] = Silver 1.0 μM, 4th of four biocide concentrations, E. coli
[24] = Silver 5.0 μM, 1st of four biocide concentrations, E. coli
[25] = Silver 5.0 μM, 3rd of four biocide concentrations, E. coli
[26] = Silver 5.0 μM, 4th of four biocide concentrations, E. coli

Niaproof
CDI (coefficient of drug interaction), copper mixed with biocide [1]: 1.26 | CDI (coefficient of drug interaction), copper mixed with biocide [2]: 1.45 | CDI (coefficient of drug interaction), copper mixed with biocide [3]: 0.74 | CDI (coefficient of drug interaction), copper mixed with biocide (1st of 3 copper concentrations (value not shown), 4th of four biocide concentrations): 0.91 | CDI (coefficient of drug interaction), copper mixed with biocide [4]: 1.09 | CDI (coefficient of drug interaction), copper mixed with biocide [5]: 1.20 | CDI (coefficient of drug interaction), copper mixed with biocide [6]: 0.43 | CDI (coefficient of drug interaction), copper mixed with biocide (2nd of 3 copper concentrations (value not shown), 4th of four biocide concentrations): 0.46 | CDI (coefficient of drug interaction), copper mixed with biocide [7]: 1.19 | CDI (coefficient of drug interaction), copper mixed with biocide [8]: 1.00 | CDI (coefficient of drug interaction), copper mixed with biocide [9]: 0.73 | CDI (coefficient of drug interaction), copper mixed with biocide [10]: 1.32 | CDI (coefficient of drug interaction) (Gold section of Table 5, first of three gold concentrations (μM, value not given), biocide concentration 1 of 4): 1.32 | CDI (coefficient of drug interaction) [11]: 1.27 | CDI (coefficient of drug interaction) [12]: 1.21 | CDI (coefficient of drug interaction) (Gold section of Table 5, second of three gold concentrations (μM, value not given), biocide concentration 2 of 4): 1.03 | CDI (coefficient of drug interaction) [13]: 1.09 | CDI (coefficient of drug interaction) [14]: 1.15 | CDI (coefficient of drug interaction) [15]: 1.35 | CDI (coefficient of drug interaction) [16]: 1.20 | CDI (coefficient of drug interaction) (Gold section of Table 5, third of three gold concentrations (μM, value not given), biocide concentration 3 of 4): 0.95 | CDI (coefficient of drug interaction) [17]: 1.51 | CDI (coefficient of drug interaction), silver + biocide [18]: 1.07 | CDI (coefficient of drug interaction), silver + biocide [19]: 1.17 | CDI (coefficient of drug interaction), silver + biocide [20]: 1.74 | CDI (coefficient of drug interaction), silver + biocide [21]: 1.17 | CDI (coefficient of drug interaction), silver + biocide [22]: 0.99 | CDI (coefficient of drug interaction), silver + biocide [23]: 1.45 | CDI (coefficient of drug interaction), silver + biocide [24]: 0.89 | CDI (coefficient of drug interaction), silver + biocide (Silver 5.0 μM, 2nd of four biocide concentrations, E. coli): 0.99 | CDI (coefficient of drug interaction), silver + biocide [25]: 0.78 | CDI (coefficient of drug interaction), silver + biocide [26]: 0.55

acriflavine
CDI (coefficient of drug interaction), copper mixed with biocide [1]: 1.00 | CDI (coefficient of drug interaction), copper mixed with biocide [2]: 1.03 | CDI (coefficient of drug interaction), copper mixed with biocide [3]: 0.95 | CDI (coefficient of drug interaction), copper mixed with biocide [4]: 0.88 | CDI (coefficient of drug interaction), copper mixed with biocide [5]: 0.91 | CDI (coefficient of drug interaction), copper mixed with biocide [6]: 0.95 | CDI (coefficient of drug interaction), copper mixed with biocide [7]: 0.89 | CDI (coefficient of drug interaction), copper mixed with biocide [8]: 0.82 | CDI (coefficient of drug interaction), copper mixed with biocide [9]: 0.81 | CDI (coefficient of drug interaction), copper mixed with biocide [10]: 0.78 | CDI (coefficient of drug interaction) (Gold 5 μM, biocide concentration 1 of 4, E. coli): 0.92 | CDI (coefficient of drug interaction) (Gold 5 μM, biocide concentration 2 of 4, E. coli): 0.94 | CDI (coefficient of drug interaction) (Gold 5 μM, biocide concentration 3 of 4, E. coli): 0.94 | CDI (coefficient of drug interaction) (Gold 25 μM, biocide concentration 1 of 4, E. coli): 0.96 | CDI (coefficient of drug interaction) (Gold 25 μM, biocide concentration 3 of 4, E. coli): 0.96 | CDI (coefficient of drug interaction) (Gold 25 μM, biocide concentration 4 of 4, E. coli): 0.87 | CDI (coefficient of drug interaction) (Gold 50 μM, biocide concentration 1 of 4, E. coli): 0.86 | CDI (coefficient of drug interaction) (Gold 50 μM, biocide concentration 2 of 4, E. coli): 1.00 | CDI (coefficient of drug interaction) (Gold 50 μM, biocide concentration 3 of 4, E. coli): 0.96 | CDI (coefficient of drug interaction) (Gold 50 μM, biocide concentration 4 of 4, E. coli): 0.84 | CDI (coefficient of drug interaction), silver + biocide [18]: 0.99 | CDI (coefficient of drug interaction), silver + biocide [19]: 1.03 | CDI (coefficient of drug interaction), silver + biocide (Silver 0.5 μM, 3rd of four biocide concentrations, E. coli): 0.86 | CDI (coefficient of drug interaction), silver + biocide [20]: 0.73 | CDI (coefficient of drug interaction), silver + biocide (Silver 1.0 μM, 1st of four biocide concentrations, E. coli): 0.97 | CDI (coefficient of drug interaction), silver + biocide [21]: 0.95 | CDI (coefficient of drug interaction), silver + biocide [22]: 0.87 | CDI (coefficient of drug interaction), silver + biocide [23]: 0.59 | CDI (coefficient of drug interaction), silver + biocide [24]: 0.96 | CDI (coefficient of drug interaction), silver + biocide [25]: 0.54 | CDI (coefficient of drug interaction), silver + biocide [26]: 0.24

capreomycin
CDI (coefficient of drug interaction) (Copper (mM), 1st of 3 copper concentrations (head line not shown), biocide concentration 1 of 4, E. coli): 1.10 | CDI (coefficient of drug interaction) (Copper (mM), 1st of 3 copper concentrations (head line not shown), biocide concentration 2 of 4, E. coli): 0.91 | CDI (coefficient of drug interaction) (Copper (mM), 1st of 3 copper concentrations (head line not shown), biocide concentration 3 of 4, E. coli): 0.83 | CDI (coefficient of drug interaction) (Copper (mM), 1st of 3 copper concentrations (head line not shown), biocide concentration 4 of 4, E. coli): 0.87 | CDI (coefficient of drug interaction) (Copper (mM), 2nd of 3 copper concentrations (head line not shown), biocide concentration 1 of 4, E. coli): 0.87 | CDI (coefficient of drug interaction) (Copper (mM), 2nd of 3 copper concentrations (head line not shown), biocide concentration 2 of 4, E. coli): 0.86 | CDI (coefficient of drug interaction) (Copper (mM), 2nd of 3 copper concentrations (head line not shown), biocide concentration 3 of 4, E. coli): 0.90 | CDI (coefficient of drug interaction) (Copper (mM), 2nd of 3 copper concentrations (head line not shown), biocide concentration 4 of 4, E. coli): Tox | CDI (coefficient of drug interaction) (Copper (mM), 3rd of 3 copper concentrations (head line not shown), biocide concentration 1 of 4, E. coli): 0.86 | CDI (coefficient of drug interaction) (Copper (mM), 3rd of 3 copper concentrations (head line not shown), biocide concentration 2 of 4, E. coli): 0.57 | CDI (coefficient of drug interaction) (Copper (mM), 3rd of 3 copper concentrations (head line not shown), biocide concentration 3 of 4, E. coli): 0.49 | CDI (coefficient of drug interaction) (Copper (mM), 3rd of 3 copper concentrations (head line not shown), biocide concentration 4 of 4, E. coli): 0.60 | CDI (coefficient of drug interaction) [11]: 1.03 | CDI (coefficient of drug interaction) [12]: 1.03 | CDI (coefficient of drug interaction) [13]: 0.97 | CDI (coefficient of drug interaction) [14]: 1.06 | CDI (coefficient of drug interaction) [15]: 1.00 | CDI (coefficient of drug interaction) [16]: 0.98 | CDI (coefficient of drug interaction) [17]: 1.14 | CDI (Silver 0.5 μM, biocide concentration 1 of 4): 0.95 | CDI (Silver 0.5 μM, biocide concentration 2 of 4): 0.92 | CDI (Silver 0.5 μM, biocide concentration 3 of 4): 0.96 | CDI (Silver 0.5 μM, biocide concentration 4 of 4): Tox | CDI (Silver 1.0 μM, biocide concentration 1 of 4): 0.69 | CDI (Silver 1.0 μM, biocide concentration 2 of 4): 0.37 | CDI (Silver 1.0 μM, biocide concentration 3 of 4): 0.35 | CDI (Silver 1.0 μM, biocide concentration 4 of 4): Tox | CDI (Silver 5.0 μM, biocide concentration 1 of 4): 0.41 | CDI (Silver 5.0 μM, biocide concentration 2 of 4): 0.11 | CDI (Silver 5.0 μM, biocide concentration 3 of 4): 0.02 | CDI (Silver 5.0 μM, biocide concentration 4 of 4): Tox
